Experimental data published in the Kinase Knowledgebase extract (Sharma et al. 2016).
pIC50, pKi: −log10 of the molar value.

What was measured:
EGFR (human) [1] = target: EGFR (human) (UniProt P00533); details: a431
EGFR (human) [2] = target: EGFR (human) (UniProt P00533); details: a431; remark: listed apart in the source
EGFR (human) [3] = target: EGFR (human) (UniProt P00533); details: f/l herc cells
EGFR (human) [4] = target: EGFR (human) (UniProt P00533); details: a431; remark: listed apart in the source
EGFR [5] = target: EGFR (UniProt P00533)
EGFR (murine) [6] = target: EGFR (murine) (UniProt P00533); details: nih3t3
EGFR (human) [7] = target: EGFR (human) (UniProt P00533); details: a431; remark: listed apart in the source
EGFR [8] = target: EGFR (UniProt P00533); remark: listed apart in the source
PIK3CA = PIK3CA (UniProt P42336); assay: PIK3CA Inhibition
EGFR (murine) [9] = target: EGFR (murine) (UniProt P00533); details: f/l-herc
EGFR (murine) [10] = target: EGFR (murine) (UniProt P00533); details: f/l-herc; remark: listed apart in the source
EGFR [11] = target: EGFR (UniProt P00533); remark: listed apart in the source
EGFR (human) [12] = target: EGFR (human) (UniProt P00533); details: a431; remark: listed apart in the source
EGFR [13] = target: EGFR (UniProt P00533); remark: listed apart in the source
EGFR [14] = target: EGFR (UniProt P00533); remark: listed apart in the source
EGFR (mouse) [15] = target: EGFR (mouse) (UniProt P00533); details: balb/mk cells
EGFR [16] = target: EGFR (UniProt P00533); remark: listed apart in the source
EGFR [17] = target: EGFR (UniProt P00533); remark: listed apart in the source
EGFR (murine) [18] = target: EGFR (murine) (UniProt P00533); details: nih3t3; remark: listed apart in the source
ROCK2 = ROCK2 (UniProt O75116); assay: Inhibition of COS cell Derived Rho kinase (ROCKII)
MAPK14 [19] = target: MAPK14 (UniProt Q16539); assay: p38-alpha 2 Inhibition; details: concentration not given here
EGFR (human) [20] = target: EGFR (human) (UniProt P00533); details: A431
MAPK14 [21] = target: MAPK14 (UniProt Q16539); assay: p38 Binding Asssy
[22] = test system: MAPK14 (sprague-dawley rat); assay: p38-mediated TNF-alpha Inhibition (Sprauge-Dawley Rats); details: dose or concentration not given here
CDK2;CDK1 = CDK2;CDK1 (UniProt P24941); assay: Cell-Based Assay
EGFR (mouse) [23] = target: EGFR (mouse) (UniProt P00533); details: nih3t3/c7
MAPK14 [24] = target: MAPK14 (UniProt Q16539); assay: In Vitro p38 Inhibition
ROCK2 (human) [25] = target: ROCK2 (human) (UniProt O75116); assay: Enzyme Assay
ROCK2 (human) [26] = target: ROCK2 (human) (UniProt O75116); assay: Enzyme Assay; remark: listed apart in the source
EGFR (human) [27] = target: EGFR (human) (UniProt P00533); details: mkn45, concentration not given here

EGFR, sequence (P00533 whole entry, looked up): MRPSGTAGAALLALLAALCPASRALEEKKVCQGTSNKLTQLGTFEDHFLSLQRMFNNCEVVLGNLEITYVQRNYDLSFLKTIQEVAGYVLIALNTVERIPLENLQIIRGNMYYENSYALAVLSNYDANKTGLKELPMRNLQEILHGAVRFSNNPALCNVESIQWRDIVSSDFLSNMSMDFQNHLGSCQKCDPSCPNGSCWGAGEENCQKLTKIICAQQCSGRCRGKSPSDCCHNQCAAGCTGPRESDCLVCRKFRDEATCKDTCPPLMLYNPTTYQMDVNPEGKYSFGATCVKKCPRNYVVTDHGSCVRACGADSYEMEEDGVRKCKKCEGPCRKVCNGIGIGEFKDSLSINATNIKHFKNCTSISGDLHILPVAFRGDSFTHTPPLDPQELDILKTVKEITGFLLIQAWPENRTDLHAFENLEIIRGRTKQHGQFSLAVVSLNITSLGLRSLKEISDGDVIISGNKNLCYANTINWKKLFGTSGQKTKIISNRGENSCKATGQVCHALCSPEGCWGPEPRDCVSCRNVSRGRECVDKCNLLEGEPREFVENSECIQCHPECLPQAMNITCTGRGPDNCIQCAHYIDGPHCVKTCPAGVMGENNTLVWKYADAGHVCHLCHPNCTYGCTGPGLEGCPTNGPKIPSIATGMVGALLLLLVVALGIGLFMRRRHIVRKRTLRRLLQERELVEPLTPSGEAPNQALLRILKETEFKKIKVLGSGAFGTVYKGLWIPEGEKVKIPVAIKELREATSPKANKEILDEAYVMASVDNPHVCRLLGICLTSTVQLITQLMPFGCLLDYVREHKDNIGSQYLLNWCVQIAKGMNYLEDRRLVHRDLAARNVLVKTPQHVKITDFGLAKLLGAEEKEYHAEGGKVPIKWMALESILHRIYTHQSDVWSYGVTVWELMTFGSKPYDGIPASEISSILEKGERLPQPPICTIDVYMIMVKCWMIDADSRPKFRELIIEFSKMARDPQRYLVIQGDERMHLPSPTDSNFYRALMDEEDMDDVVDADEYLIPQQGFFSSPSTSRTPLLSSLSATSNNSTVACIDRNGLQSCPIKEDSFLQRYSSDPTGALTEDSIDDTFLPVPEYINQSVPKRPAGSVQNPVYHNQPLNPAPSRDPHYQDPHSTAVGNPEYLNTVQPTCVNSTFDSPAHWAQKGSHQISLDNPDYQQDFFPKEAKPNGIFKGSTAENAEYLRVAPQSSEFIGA
EGFR (human), sequence (P00533 whole entry, looked up): as above
EGFR (murine), sequence (P00533 whole entry, looked up): as above
MAPK14, sequence (Q16539 whole entry, looked up): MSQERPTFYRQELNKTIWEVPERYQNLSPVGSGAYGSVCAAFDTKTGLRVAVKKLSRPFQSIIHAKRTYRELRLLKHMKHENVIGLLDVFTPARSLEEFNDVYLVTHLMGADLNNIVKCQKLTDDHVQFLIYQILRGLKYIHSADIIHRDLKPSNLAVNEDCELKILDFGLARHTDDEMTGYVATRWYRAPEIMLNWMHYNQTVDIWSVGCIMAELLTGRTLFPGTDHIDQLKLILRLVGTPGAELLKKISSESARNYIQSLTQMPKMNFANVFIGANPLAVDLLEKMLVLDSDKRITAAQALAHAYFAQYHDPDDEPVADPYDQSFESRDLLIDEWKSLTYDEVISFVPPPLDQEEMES
PIK3CA, sequence (P42336 whole entry, looked up): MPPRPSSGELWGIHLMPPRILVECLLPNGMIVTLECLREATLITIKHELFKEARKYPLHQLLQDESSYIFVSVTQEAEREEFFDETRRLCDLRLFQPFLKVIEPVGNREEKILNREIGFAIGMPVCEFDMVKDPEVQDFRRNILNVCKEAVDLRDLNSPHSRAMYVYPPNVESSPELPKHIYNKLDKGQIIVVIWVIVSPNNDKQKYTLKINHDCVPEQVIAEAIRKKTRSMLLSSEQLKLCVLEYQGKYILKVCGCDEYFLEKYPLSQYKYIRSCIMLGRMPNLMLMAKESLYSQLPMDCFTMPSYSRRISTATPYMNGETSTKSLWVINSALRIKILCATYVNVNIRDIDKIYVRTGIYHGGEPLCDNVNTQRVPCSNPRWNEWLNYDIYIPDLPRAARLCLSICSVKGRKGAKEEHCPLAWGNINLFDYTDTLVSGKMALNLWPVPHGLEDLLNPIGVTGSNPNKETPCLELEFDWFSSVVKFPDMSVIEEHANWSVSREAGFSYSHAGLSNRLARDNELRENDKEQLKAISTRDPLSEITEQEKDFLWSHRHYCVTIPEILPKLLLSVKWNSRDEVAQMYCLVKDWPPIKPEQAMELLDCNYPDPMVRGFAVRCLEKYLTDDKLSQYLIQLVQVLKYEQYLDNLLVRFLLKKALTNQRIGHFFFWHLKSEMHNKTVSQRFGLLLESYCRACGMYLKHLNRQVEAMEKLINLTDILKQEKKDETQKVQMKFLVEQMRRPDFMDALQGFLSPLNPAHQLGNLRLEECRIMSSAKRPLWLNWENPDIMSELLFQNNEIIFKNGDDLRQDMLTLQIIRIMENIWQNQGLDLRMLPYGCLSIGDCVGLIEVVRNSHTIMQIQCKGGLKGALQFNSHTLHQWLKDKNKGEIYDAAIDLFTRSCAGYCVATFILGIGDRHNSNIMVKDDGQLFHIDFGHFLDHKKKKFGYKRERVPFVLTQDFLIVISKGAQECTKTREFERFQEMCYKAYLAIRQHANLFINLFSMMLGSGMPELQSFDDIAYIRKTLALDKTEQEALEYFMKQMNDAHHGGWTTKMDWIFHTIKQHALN

COc1cc2ncnc(N[C@H](CO)c3ccccc3)c2cc1OC
pIC50 (EGFR (human) [1]): < 5.81
pIC50 (EGFR (human) [2]): 6.10

CCOC(=O)CN1CCN(C/C=C/C(=O)Nc2cc3c(Nc4ccc(F)c(Cl)c4)ncnc3cc2OCCC2CC2)CC1
pIC50 (EGFR (human) [3]): 7.77

Oc1ccc2ncnc(Nc3cccc(Br)c3)c2c1
pKi (EGFR (human) [4]): 10.60

Cn1c(=O)c(-c2c(Cl)cccc2Cl)cc2cnc(Nc3ccccc3)nc21
pIC50 (EGFR [5]): 7.11

N#Cc1ccc(NC(=S)Nc2ccc(S(=O)(=O)N3CCCCC3)cc2)cc1
pIC50 (EGFR (murine) [6]): < 4.00

CNC(=O)c1ccc(S(=O)(=O)Oc2ccc(/C=C/[N+](=O)[O-])cc2)cc1
pIC50 (EGFR (human) [7]): 4.43

COc1cc2ncnc(Nc3ccc(F)c(Cl)c3)c2cc1OCCN1CCOCC1
pIC50 (EGFR [8]): 8.00

COc1cc2ncnc(Nc3ccc(F)c(Cl)c3)c2cc1OCCN1CCN(C)CC1
pIC50 (EGFR [8]): 8.00

CCCCCCCCCCCCCCCC(=O)OC[C@H](COP(=O)(O)O[C@H]1[C@H](O)[C@@H](O)[C@H](O)C[C@H]1O)OC(=O)CCCCCCCCCCCCCCC
pIC50 (PIK3CA): 4.42

CN1C2CC[C@]1(Nc1ncc3ncnc(Nc4ccc(F)c(Cl)c4)c3n1)CC(O)C2 (stereo not given in full)
pIC50 (EGFR (murine) [9]): 6.86
pIC50 (EGFR (murine) [10]): < 5.00

O=C(c1c[nH]c2ccccc12)N1CCC(Cc2ccccc2)CC1
pIC50 (EGFR [11]): < 3.30

CO[C@@H](C#CC(=O)Nc1ccc2ncc(C#N)c(Nc3cccc(Br)c3)c2c1)CN1CCCC1
pIC50 (EGFR (human) [12]): 5.92
pIC50 (EGFR [13]): 6.82

Cc1cc(C(=O)N2CCOCC2)[nH]c1/C=C1/C(=O)Nc2ncnc(N3CCCCC3)c21
pIC50 (EGFR [14]): < 4.70

O=C(c1cccc2[nH]ccc12)N1CCC(Cc2ccccc2)CC1
pIC50 (EGFR [11]): < 3.30

C[C@H](NC(=O)c1ccc(S(=O)(=O)Oc2ccc(/C=C/[N+](=O)[O-])cc2)cc1)C(=O)N[C@@H](C)C(=O)NCCN
pIC50 (EGFR (mouse) [15]): < 4.30

COc1ccc(OC)c(COc2ccc(O)c(C(=O)O)c2)c1
pIC50 (EGFR [16]): < 4.00

COc1cc2ncnc(N[C@H](COC(C)=O)c3ccccc3)c2cc1OC
pIC50 (EGFR (human) [1]): 5.28
pIC50 (EGFR (human) [2]): 5.88

CCn1cnc2c(Nc3cccc(Cl)c3)nc(N[C@@H]3CCCC[C@@H]3N)nc21
pIC50 (EGFR [17]): < 5.00

Oc1ccc2c(Nc3cccc(Br)c3)ncnc2c1
pKi (EGFR (human) [4]): 9.77

CCC(=O)CN(C)C/C=C/C(=O)Nc1cc2c(N[C@H](C)c3ccccc3)ncnc2cc1OC
pIC50 (EGFR (human) [3]): 8.05

NS(=O)(=O)c1ccc2c(c1)/C(=C/C1=CC3=C(CCCC3)C1)C(=O)N2
pIC50 (EGFR (murine) [18]): < 4.00

CC(N)[C@H]1CC[C@H](C(=O)Nc2ccnc3[nH]ccc23)CC1 (stereo not given in full)
pIC50 (ROCK2): 7.32

O=C(Nc1cc(C2[C@H]3C[C@@H]4C[C@@H](C[C@H]2C4)C3)no1)Nc1cccc(Cl)c1Cl (stereo not given in full)
inhibition (MAPK14 [19]): 9%

CCCCCCCCCCCCCCCCCCOC[C@H](COP(=O)(O)O[C@H]1[C@H](O)[C@@H](O)CC[C@H]1O)OC
pIC50 (PIK3CA): 6.10

Cc1nnc(-c2ccc3ncnc(Nc4ccc(OCc5cc(F)cc(F)c5)cc4)c3c2)o1
pIC50 (EGFR (human) [20]): 8.05

[N-]=[N+]=Nc1ccc(-c2nc(-c3cccc(I)c3)c(-c3ccncc3)[nH]2)cc1
pIC50 (MAPK14 [21]): 6.19

C=CC(=O)Nc1cc2c(Nc3cccc(Br)c3)c(C#N)cnc2cc1OC
pIC50 (EGFR [13]): 6.09

CNCC#Cc1cccc(C(=O)c2cnn(-c3ccc(F)cc3)c2N)c1
inhibition [22]: 86%

Cn1cnc2c(OCC3CCCCC3)nc(N)nc21
GI50 (CDK2;CDK1): > 100000 nM

CN1CCN(CCCNc2ncc3cc(-c4c(Cl)cccc4Cl)c(=O)n(C)c3n2)CC1
pIC50 (EGFR [5]): 5.06

Cc1cnc2cc3nc(-c4ccccc4)[nH]c3c(C)c2n1
pIC50 (EGFR (mouse) [23]): < 4.00

CN(C)S(=O)(=O)c1ccc2c(c1)/C(=C/C1=CC3=C(CCCC3)C1)C(=O)N2
pIC50 (EGFR (murine) [18]): < 4.00

O=C(CNS(=O)(=O)c1ccc(CNC(=O)c2ccc(Cl)cc2)s1)NCCNc1ccc(C(F)(F)F)cn1
pIC50 (MAPK14 [24]): < 4.52

NCc1ccc(C(=O)Nc2ccncc2F)cc1-c1cccc(C(=O)Nc2ccc(C(=O)O)cc2)c1
pIC50 (ROCK2 (human) [25]): 9.00
pIC50 (ROCK2 (human) [26]): 8.39

Nc1c2ccccc2nc2c1ccc1ncccc12
cell viability (EGFR (human) [27]): > 90%
